Literature values, collected in US5776505A (Bayer Aktiengesellschaft, priority 1995, dated 1998).

Details: cross-over study; with magnesium hydroxide

Question: With `CC(C)Cc1ccc(C(C)C(=O)O)cc1` (stereo not shown) [ibuprofen] as the compound, how does the “plasma concentration as a result of addition of magnesium hydroxide” value read?
Answer: The value was “higher plasma concentration”.
